Results published in PubChem BioAssay (NCI).
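Following 48 hours of exposure in 96-well plates, responses at five concentrations were used to interpolate endpoints linearly. TGI is the concentration that stops growth completely.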

Legend:
Experiment in all cases: NCI tumour cell line growth inhibition, 48 h
ACHN renal = tested on: ACHN renal
SF-268 CNS = tested on: SF-268 CNS
SR leukemia = tested on: SR leukemia
OVCAR-5 ovarian = tested on: OVCAR-5 ovarian
HT29 colon = tested on: HT29 colon
NCI-H226 lung = tested on: NCI-H226 lung
SN12C renal = tested on: SN12C renal
COLO 205 colon = tested on: COLO 205 colon
PC-3 prostate = tested on: PC-3 prostate
UO-31 renal = tested on: UO-31 renal

| Structure (SMILES) | TGI (ACHN renal) | TGI (SF-268 CNS) | TGI (SR leukemia) | TGI (OVCAR-5 ovarian) | TGI (HT29 colon) | TGI (NCI-H226 lung) | TGI (SN12C renal) | TGI (COLO 205 colon) | TGI (PC-3 prostate) | TGI (UO-31 renal) |
| --- | --- | --- | --- | --- | --- | --- | --- | --- | --- | --- |
| O=C(O)c1c2c(cc3c1CC1(Cc4ccccc4C1=O)C3)CCC2 (stereo not given) | > 100 µM | > 100 µM | 9.56 µM | > 100 µM | > 69.7 µM | > 85.8 µM | > 100 µM | 54.6 µM | > 100 µM | > 100 µM |
| NS(=O)(=O)c1ccc(NC(NC(=O)C(C(F)(F)F)C(F)(F)F)(C(F)(F)F)C(F)(F)F)cc1 | > 100 µM | > 100 µM | > 100 µM | > 100 µM | > 100 µM | > 100 µM | > 100 µM | > 100 µM | > 100 µM | > 100 µM |
| N#CC(=N)c1ncn(-c2ccccc2N)c1N | > 100 µM | > 100 µM | > 100 µM | > 100 µM | > 100 µM | > 100 µM | > 100 µM | > 100 µM | > 100 µM | > 100 µM |
| COc1ccc(N=NC(=Nc2ccc(F)cc2)c2ccc(N(CCC#N)CCC#N)cc2)cc1 | > 100 µM | > 100 µM | > 100 µM | > 100 µM | > 100 µM | > 100 µM | > 100 µM | > 100 µM | 58.9 µM | > 100 µM |
| CC1=CC(=O)CC2(C)CCC(C(C)CC(=O)CC(C)C)CC12 (stereo not given) | 31.3 µM | > 100 µM | 41.6 µM | > 100 µM | 76.8 µM | 63.2 µM | 32.6 µM | 31.8 µM | 40.7 µM | > 100 µM |
